Measured values published in patent publication US20260355165A1, “2,3,4,9-TETRAHYDRO-1H-PYRIDO[3,4-B]INDOLE DERIVATIVES AS ESTROGEN RECEPTOR MODULATORS FOR THE TREATMENT OF CANCER” (Olema Pharmaceuticals, Inc., priority 2022, published 2026).

Biological target: T1, estrogen receptor (Homo sapiens, UniProt P03372)
T1 construct: endogenous in cells; host or cells: ECC-1 cells
T1 sequence (P03372 1-595): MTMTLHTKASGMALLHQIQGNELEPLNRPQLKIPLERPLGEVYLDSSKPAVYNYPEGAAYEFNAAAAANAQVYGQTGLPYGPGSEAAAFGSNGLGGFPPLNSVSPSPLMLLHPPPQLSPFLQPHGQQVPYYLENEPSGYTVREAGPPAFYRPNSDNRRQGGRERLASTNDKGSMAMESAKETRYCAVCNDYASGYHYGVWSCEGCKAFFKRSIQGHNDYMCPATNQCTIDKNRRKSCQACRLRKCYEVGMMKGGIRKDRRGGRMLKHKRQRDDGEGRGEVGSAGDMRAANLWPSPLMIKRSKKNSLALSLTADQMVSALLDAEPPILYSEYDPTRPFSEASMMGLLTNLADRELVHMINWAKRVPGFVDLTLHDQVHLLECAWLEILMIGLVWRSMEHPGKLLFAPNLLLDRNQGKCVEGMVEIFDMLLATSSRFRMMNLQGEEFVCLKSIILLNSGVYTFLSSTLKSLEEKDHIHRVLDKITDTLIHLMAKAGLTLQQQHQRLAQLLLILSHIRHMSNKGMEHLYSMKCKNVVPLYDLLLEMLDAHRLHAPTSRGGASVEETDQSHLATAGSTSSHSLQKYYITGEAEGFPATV
Assay: AP assay (alkaline phosphatase activity in ECC-1 cells), agonist mode (absence of E2) and antagonist mode (presence of 500 pM E2)
Format: cell-based
Conditions: 3 days, AP activity normalized to 500 pM E2 alone, agonist and antagonist mode combined
Experimental: ECC-1 cells were trypsinized and resuspended in hormone-depleted media and plated at a density of 15 k cells per well into a 96-well plate for at least 4 hours. Cells were treated with test compounds in the absence of E2 (for agonist mode) or in the presence of 500 pM E2 (for antagonist mode) for 3 days and plates were subsequently frozen at −80 °C. Thawed plates were incubated with a chromogenic substrate of AP, p-nitrophenyl phosphate (Thermo Fisher Scientific), for 40 minutes at 42 °C, and absorbances were read at 405 nm. AP activity was normalized to the activity of 500 pM E2 alone.
The compound numbers correspond to the compound numbers of Table 1 and 2. Compounds having an activity designated as “+” provided estrogen receptor agonism having (i) at least 80% increase in the E2-normalized signal in the AP assay (agonist mode) and (ii) no more than 80% reduction in the E2-normalized signal in the AP assay (antagonist mode). Compounds having an activity designated as “++” provided estrogen receptor antagonism having (i) between 10% and 80% increase in the E2-normalized signal in the AP assay (agonist mode) and (ii) between 10% and 80% reduction in the E2-normalized signal in the AP assay (antagonist mode).

Structure (SMILES) | Activity (estrogen receptor modulation, e.g., agonism and antagonism)
CC[C@H]1CCN(Cc2cc3sc([C@@H]4c5[nH]c6ccccc6c5C[C@@H](C)N4CC(C)(C)F)cc3[nH]2)C1 [Compound I-68, 5-[[(3S)-3-ethylpyrrolidin-1-yl]methyl]-2-[(1S,3R)-2-(2-fluoro-2-methyl-propyl)-3-methyl-1,3,4,9-tetrahydropyrido[3,4-b]indol-1-yl]-4H-thieno[3,2-b]pyrrole] | + (estrogen receptor agonism having (i) at least 80% increase in the E2-normalized signal in the AP assay (agonist mode) and (ii) no more than 80% reduction in the E2-normalized signal in the AP assay (antagonist mode))
C[C@@H]1Cc2c([nH]c3ccccc23)[C@@H](c2c[nH]c3cc(CN4CC(CF)C4)ccc23)N1CC(C)(C)F [Compound I-5, (1R,3R)-1-[6-[[3-(fluoromethyl)azetidin-1-yl]methyl]-1H-indol-3-yl]-2-(2-fluoro-2-methyl-propyl)-3-methyl-1,3,4,9-tetrahydropyrido[3,4-b]indole] | ++ (estrogen receptor antagonism having (i) between 10% and 80% increase in the E2-normalized signal in the AP assay (agonist mode) and (ii) between 10% and 80% reduction in the E2-normalized signal in the AP assay (antagonist mode))
C[C@@H]1Cc2c([nH]c3ccccc23)[C@@H](c2ccc3[nH]c(CN4CC(C(C)(C)O)C4)cc3c2)N1CC(C)(C)F [Compound I-48, 2-[1-[[5-[(1R,3R)-2-(2-fluoro-2-methyl-propyl)-3-methyl-1,3,4,9-tetrahydropyrido[3,4-b]indol-1-yl]-1H-indol-2-yl]methyl]azetidin-3-yl]propan-2-ol] | + (estrogen receptor agonism having (i) at least 80% increase in the E2-normalized signal in the AP assay (agonist mode) and (ii) no more than 80% reduction in the E2-normalized signal in the AP assay (antagonist mode))
C[C@@H]1Cc2c([nH]c3ccccc23)[C@@H](c2cc(F)c3oc(CN4CC(CF)C4)nc3c2)N1CC(F)(F)CO [Compound I-81, 2,2-difluoro-3-[(1R,3R)-1-[7-fluoro-2-[[3-(fluoromethyl)azetidin-1-yl]methyl]-1,3-benzoxazol-5-yl]-3-methyl-1,3,4,9-tetrahydropyrido[3,4-b]indol-2-yl]propan-1-ol] | + (estrogen receptor agonism having (i) at least 80% increase in the E2-normalized signal in the AP assay (agonist mode) and (ii) no more than 80% reduction in the E2-normalized signal in the AP assay (antagonist mode))
CCCN(C)Cc1ccc2c([C@@H]3c4[nH]c5ccccc5c4C[C@@H](C)N3CC(C)(C)F)n[nH]c2c1 [Compound I-13, N-[[3-[(1S,3R)-2-(2-fluoro-2-methyl-propyl)-3-methyl-1,3,4,9-tetrahydropyrido[3,4-b]indol-1-yl]-1H-indazol-6-yl]methyl]-N-methyl-propan-1-amine] | + (estrogen receptor agonism having (i) at least 80% increase in the E2-normalized signal in the AP assay (agonist mode) and (ii) no more than 80% reduction in the E2-normalized signal in the AP assay (antagonist mode))
CC1CN(Cc2cnc3[nH]cc([C@@H]4c5[nH]c6ccccc6c5C[C@@H](C)N4CC(C)(C)F)c3c2)C1 [Compound I-59, (1R,3R)-2-(2-fluoro-2-methyl-propyl)-3-methyl-1-[5-[(3-methylazetidin-1-yl)methyl]-1H-pyrrolo[2,3-b]pyridin-3-yl]-1,3,4,9-tetrahydropyrido[3,4-b]indole] | + (estrogen receptor agonism having (i) at least 80% increase in the E2-normalized signal in the AP assay (agonist mode) and (ii) no more than 80% reduction in the E2-normalized signal in the AP assay (antagonist mode))
C[C@@H]1Cc2c([nH]c3ccccc23)[C@@H](c2n[nH]c3cc(C(=O)O)ccc23)N1CC(C)(C)F [Compound I-4, 3-[(1S,3R)-2-(2-fluoro-2-methyl-propyl)-3-methyl-1,3,4,9-tetrahydropyrido[3,4-b]indol-1-yl]-1H-indazole-6-carboxylic acid] | + (estrogen receptor agonism having (i) at least 80% increase in the E2-normalized signal in the AP assay (agonist mode) and (ii) no more than 80% reduction in the E2-normalized signal in the AP assay (antagonist mode))
C[C@@H]1Cc2c([nH]c3ccccc23)[C@@H](c2cc3[nH]c(CNCCCF)cc3s2)N1CC(C)(C)F [Compound I-67, 3-fluoro-N-[[2-[(1S,3R)-2-(2-fluoro-2-methyl-propyl)-3-methyl-1,3,4,9-tetrahydropyrido[3,4-b]indol-1-yl]-4H-thieno[3,2-b]pyrrol-5-yl]methyl]propan-1-amine] | + (estrogen receptor agonism having (i) at least 80% increase in the E2-normalized signal in the AP assay (agonist mode) and (ii) no more than 80% reduction in the E2-normalized signal in the AP assay (antagonist mode))
C[C@@H]1Cc2c([nH]c3ccccc23)[C@@H](c2cc3ccc(CN4CC(CF)C4)cc3[nH]2)N1CC(C)(C)F [Compound I-56, (1R,3R)-1-[6-[[3-(fluoromethyl)azetidin-1-yl]methyl]-1H-indol-2-yl]-2-(2-fluoro-2-methyl-propyl)-3-methyl-1,3,4,9-tetrahydropyrido[3,4-b]indole] | + (estrogen receptor agonism having (i) at least 80% increase in the E2-normalized signal in the AP assay (agonist mode) and (ii) no more than 80% reduction in the E2-normalized signal in the AP assay (antagonist mode))
C[C@@H]1Cc2c([nH]c3ccccc23)[C@@H](c2c[nH]c3c(F)c(CN4CC(CF)C4)ccc23)N1CC(C)(C)F [Compound I-29, (1R,3R)-1-[7-fluoro-6-[[3-(fluoromethyl)azetidin-1-yl]methyl]-1H-indol-3-yl]-2-(2-fluoro-2-methyl-propyl)-3-methyl-1,3,4,9-tetrahydropyrido[3,4-b]indole] | ++ (estrogen receptor antagonism having (i) between 10% and 80% increase in the E2-normalized signal in the AP assay (agonist mode) and (ii) between 10% and 80% reduction in the E2-normalized signal in the AP assay (antagonist mode))
C[C@@H]1Cc2c([nH]c3ccccc23)[C@@H](c2ccc3[nH]c(CN4CC(C)(F)C4)cc3c2)N1CC(C)(C)F [Compound I-102, (1R,3R)-1-[2-[(3-fluoro-3-methyl-azetidin-1-yl)methyl]-1H-indol-5-yl]-2-(2-fluoro-2-methyl-propyl)-3-methyl-1,3,4,9-tetrahydropyrido[3,4-b]indole] | ++ (estrogen receptor antagonism having (i) between 10% and 80% increase in the E2-normalized signal in the AP assay (agonist mode) and (ii) between 10% and 80% reduction in the E2-normalized signal in the AP assay (antagonist mode))
C[C@@H]1Cc2c([nH]c3ccccc23)[C@@H](c2ccc3[nH]c(CN4CC(C)(C)C4)cc3c2)N1CC(C)(C)F [Compound I-92, (1R,3R)-1-[2-[(3,3-dimethylazetidin-1-yl)methyl]-1H-indol-5-yl]-2-(2-fluoro-2-methyl-propyl)-3-methyl-1,3,4,9-tetrahydropyrido[3,4-b]indole] | + (estrogen receptor agonism having (i) at least 80% increase in the E2-normalized signal in the AP assay (agonist mode) and (ii) no more than 80% reduction in the E2-normalized signal in the AP assay (antagonist mode))
CC1CN(Cc2cc3cc([C@@H]4c5[nH]c6ccccc6c5C[C@@H](C)N4CC(C)(C)F)ccc3[nH]2)C1 [Compound I-42, (1R,3R)-2-(2-fluoro-2-methyl-propyl)-3-methyl-1-[2-[(3-methylazetidin-1-yl)methyl]-1H-indol-5-yl]-1,3,4,9-tetrahydropyrido[3,4-b]indole] | ++ (estrogen receptor antagonism having (i) between 10% and 80% increase in the E2-normalized signal in the AP assay (agonist mode) and (ii) between 10% and 80% reduction in the E2-normalized signal in the AP assay (antagonist mode))

Same assay, conditions: AP assay, antagonist mode, 500 pM E2, 3 days

Structure (SMILES) | IC50 [nM]
C[C@@H]1Cc2c([nH]c3ccccc23)[C@@H](c2ccc3[nH]c(CN4CC(CF)C4)cc3c2)N1CC(F)(F)C(F)F [Compound I-109, (1R,3R)-1-[2-[[3-(fluoromethyl)azetidin-1-yl]methyl]-1H-indol-5-yl]-3-methyl-2-(2,2,3,3-tetrafluoropropyl)-1,3,4,9-tetrahydropyrido[3,4-b]indole] | < 398

Same assay, conditions: agonist mode, absence of E2, 3 days

Structure (SMILES) | increase in E2-normalized signal in the AP assay (agonist mode)
C[C@@H]1Cc2c([nH]c3ccccc23)[C@@H](c2ccc3[nH]c(CN4CC(CF)C4)cc3c2)N1CC(F)(F)C(F)F [Compound I-109, (1R,3R)-1-[2-[[3-(fluoromethyl)azetidin-1-yl]methyl]-1H-indol-5-yl]-3-methyl-2-(2,2,3,3-tetrafluoropropyl)-1,3,4,9-tetrahydropyrido[3,4-b]indole] | no more than 10%

Same assay, conditions: antagonist mode, 500 pM E2, 3 days

Structure (SMILES) | reduction in the E2-normalized signal in the AP assay (antagonist mode) [%]
C[C@@H]1Cc2c([nH]c3ccccc23)[C@@H](c2ccc3[nH]c(CN4CC(CF)C4)cc3c2)N1CC(F)(F)C(F)F [Compound I-109, (1R,3R)-1-[2-[[3-(fluoromethyl)azetidin-1-yl]methyl]-1H-indol-5-yl]-3-methyl-2-(2,2,3,3-tetrafluoropropyl)-1,3,4,9-tetrahydropyrido[3,4-b]indole] | ≥ 10
